{"source": "patent US20240002441A1", "about": "“PEPTIDES AND USES THEREOF IN MODULATION OF AMYLOID-BETA PROTEIN DEGRADING PROTEASES” (priority 2020, published 2024)", "key": {"[1]": {"target": "T1, NEP (Homo sapiens, UniProt P08473)", "T1 construct": "purchased R & D systems 1182-ZNC-010", "T1 sequence (P08473 whole entry)": "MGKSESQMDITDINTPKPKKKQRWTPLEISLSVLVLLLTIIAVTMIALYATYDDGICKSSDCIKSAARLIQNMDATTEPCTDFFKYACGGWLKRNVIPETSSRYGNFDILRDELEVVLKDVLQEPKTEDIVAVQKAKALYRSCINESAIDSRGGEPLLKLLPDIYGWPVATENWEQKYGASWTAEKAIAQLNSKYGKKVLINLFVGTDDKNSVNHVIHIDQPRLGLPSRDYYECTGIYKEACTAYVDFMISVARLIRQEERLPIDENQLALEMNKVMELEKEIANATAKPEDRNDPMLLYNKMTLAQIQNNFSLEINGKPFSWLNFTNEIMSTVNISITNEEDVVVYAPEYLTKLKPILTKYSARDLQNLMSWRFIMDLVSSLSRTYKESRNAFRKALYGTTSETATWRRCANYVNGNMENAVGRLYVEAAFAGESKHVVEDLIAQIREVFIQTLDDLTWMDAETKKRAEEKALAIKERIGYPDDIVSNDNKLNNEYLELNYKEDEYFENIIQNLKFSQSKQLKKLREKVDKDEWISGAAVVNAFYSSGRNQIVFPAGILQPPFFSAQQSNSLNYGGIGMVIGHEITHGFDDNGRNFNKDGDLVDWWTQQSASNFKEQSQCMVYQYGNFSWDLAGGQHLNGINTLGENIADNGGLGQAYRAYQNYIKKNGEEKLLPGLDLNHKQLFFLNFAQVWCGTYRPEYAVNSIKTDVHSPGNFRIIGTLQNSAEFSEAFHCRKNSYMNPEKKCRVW", "assay": "Cleavage of synthetic Aβ40 by NEP, LCMS (Example 7)", "type": "biochemical", "details": "peptide 9 μM", "experimental": "Synthetic Aβ40 (0.10 μg/μL) was added to a reaction mixture containing NEP (0.05 ng/μL) pre-incubated with SEQ ID NO:2 or scrambled control (9 μM) for 1 h at 37° C. Synthetic Aβ42 (0.05 μg/μL) was added to a reaction mixture containing NEP (0.15 ng/μL) preincubated with either scrambled control or SEQ ID NO:2 (9 μM) for 1 h at 37° C. Samples containing enzyme alone had only NEP buffer (Table 2). The cleavage reaction was allowed to continue in a thermomixer at 37° C. Aliquots of equal volume were taken over 24 h. Aliquots were immediately acidified with 0.1% trifluoroacetic acid (TFA) to terminate enzyme activity and snap frozen in dry ice. Samples were stored at −80° C. until analysed by LCMS.\nSamples were analysed by LC-MS/MS using a quadrupole TOF mass spectrometer (MicroTOFq, Bruker Daltonics, Bremen, Germany) coupled online with a 1200 series nano-HPLC (Agilent technologies, Santa Clara, CA, USA). Samples were injected onto a zorbax 300SB reversed phase trap column with 95% solvent A (0.1% formic acid) at a flow rate of 10 μL/minute. The peptides were eluted over a 10-min gradient to 70% solvent B (80% acetonitrile, 0.1% formic acid) and separated on a 15-cm, 75-μmID zorbax 300SB nanocolumn. The eluent was nebulised and ionised using the Bruker nano-ESI source with a capillary voltage of 4500 V, dry gas at 180° C., flow rate of 5 L/minute and nebuliser gas pressure at 300 mbar. The MS acquisition was in selected ion monitoring mode after selected ion extraction of the MS spectra. Prior to analysis, the qTOF mass spectrometer was calibrated using a 1:50 dilution tuning mix (Agilent technologies, Santa Clara, CA, USA). Data from MS run were processed in Skyline version 19.1.0.193 (Uni. Of Washington, WA, USA) to perform ion chromatogram extractions and peak integrations."}, "[2]": {"tested_on": "Ang II-induced expression of IL-6 and Collagen III in EA.hy926 cells", "assay": "Ang II-induced expression of IL-6 and Collagen III in EA.hy926 cells, western blotting (Example 9)", "type": "cell-based", "details": "24 h", "experimental": "EA.hy926 cells (passage 40) were seeded at a density of 1×10^6 cells/mL. After 24 hours, cells were incubated overnight in reduced serum media. Cells were then treated over 24 h as follows: • 1. Vehicle control • 2. Ang II (10 nM) • 3. […] Ang II (10 nM)+rhACE2 (0.05 ng/μL) • 5.\nFollowing incubation, cells were lysed using lysis buffer (Thermo Fisher Scientific, Cat #89900) containing 1% protease inhibitor (Thermo Fisher Scientific, Cat #1861278). Cell lysate was centrifuged at 13,000 rpm for 10 min. Protein concentration in the supernatant was determined by NanoDrop (Thermo Fisher Scientific, Cat #ND-1000). Supernatants were stored at −30° C. until analysed.\nSamples were diluted in SDS-PAGE reducing sample buffer (Bio-Rad Laboratories, Cat #1610747; California, USA) containing 1% β-mercaptoethanol (Bio-Rad Laboratories, Cat #221610710) to reach a final concentration of […]. Prior to loading, samples were heated at 95° C. for 5 min. Samples were loaded into the wells alongside the molecular weight marker (Life Technologies, Cat #LC5800; California, USA). Electrophoresis was conducted at 200 V for 40 min in 1× running buffer. Following protein separation by SDS-PAGE, proteins were blotted onto nitrocellulose membranes at 100 V for 1 h in 1× transfer buffer. The membranes were then blocked in 5% skim milk in 1× Tris-buffered saline (TBST) containing 0.05% Tween 20 (Thermo Fisher Scientific, Cat #28352) for 1 h at room temperature. The membranes were incubated with IL-6 (1:500; Thermo Fisher Scientific, Cat #700480) or collagen III (1:500; Invitrogen, Cat #PA5-27828) primary antibodies while rocking at 4° C. overnight. Membranes were then probed with secondary antibody conjugated with horseradish peroxidase (HRP) (1:6000) for 1 h at room temperature. The HRP-labelled proteins were detected using chemiluminescence SuperSignal™ ECL Western Blotting Substrate (Thermo Fisher Scientific, Cat #34577) at 1:1 ratio. Beta-actin was used as a loading control. Protein bands were analysed using ImageJ (version 1.51) and band density was normalised with the respective beta-actin."}, "[3]": {"tested_on": "SARS-CoV-2", "type": "cell-based", "details": "pre-treatment, Vero cells, 8 h"}}, "note": "Where two headings read alike, the source gives them in different places.", "data": [{"substance": "H-SLFELGKMIL-NH2 [SEQ ID NO:2, H2N-SLFELGKMIL-NH2]", "values": [{"measurement": "decrease in Aβ1-21 peak area over 4-20 h", "setting": "[1]; Aβ40 cleavage", "result": "7.5×10^7±1.3×10^7 arbitrary units"}, {"measurement": "levels of Aβ1-21 (peak area) at 4 h", "setting": "[1]; Aβ40 cleavage, 4 h", "result": "7.9×10^7±1.3×10^7 arbitrary units"}, {"measurement": "levels of Aβ1-21 (peak area) at 24 h", "setting": "[1]; Aβ40 cleavage, 24 h", "result": "4.1×10^6±4.8×10^5 arbitrary units"}, {"measurement": "peak area corresponding to Aβ1-12 after 24 h", "setting": "[1]; Aβ40 cleavage, 24 h", "result": "1.3×10^8±7.9×10^6 arbitrary units"}, {"measurement": "time at which breakdown of Aβ40 was complete", "setting": "[1]; NEP 0.05 ng/μL", "result": 4, "unit": "h"}, {"measurement": "amount of Aβ40 remaining after 4 h (peak area)", "setting": "[1]; NEP 0.05 ng/μL, Aβ40 0.10 μg/μL, 4 h", "result": "1.3×10^6±2.7×10^5 arbitrary units"}, {"measurement": "amount of Aβ40 remaining after 24 h, SEQ ID NO:2 versus scrambled control", "setting": "[1]; 24 h", "result": "no significant difference"}, {"measurement": "Collagen III expression compared to cells treated with Ang II alone", "setting": "[2]; Ang II 10 nM plus 2A 26 μM and/or ACE2 0.05 ng/μL", "result": "significantly lower"}, {"measurement": "IL-6 expression compared to cells treated with Ang II alone", "setting": "[2]; Ang II 10 nM plus peptide 26 μM and/or rhACE2 0.05 ng/μL", "result": "significantly lower"}, {"measurement": "Collagen III expression", "setting": "[2]; EA.hy926 cells, Ang II 10 nM alone, or Ang II and 2A (26 μM)", "result": "28±6", "unit": "%"}, {"measurement": "viral titre compared to PBS", "setting": "[3]; 200 ng/μL", "result": "significantly reduced"}, {"measurement": "viral RNA compared to PBS", "setting": "[3]; 400 ng/μL", "result": "significantly reduced"}, {"measurement": "viral titre compared to PBS", "setting": "[3]; 400 ng/μL", "result": "significantly reduced"}]}]}
